± gives the expanded uncertainty stated by the source.
Conditions: 101.33 kPa, Liquid, Vibrating tube method

Q: Which results are given for `CCOS(=O)(=O)[O-].CCn1cc[n+](C)c1` [1-ethyl-3-methylimidazolium ethyl sulfate]?
A: mass density (293.16 K): 1240.25 ± 0.16 kg/m3; mass density (298.15 K): 1236.81 ± 0.16 kg/m3; mass density (303.15 K): 1233.39 ± 0.16 kg/m3; mass density (308.15 K): 1229.98 ± 0.15 kg/m3; mass density (313.15 K): 1226.59 ± 0.15 kg/m3; mass density (318.15 K): 1223.22 ± 0.15 kg/m3; mass density (323.18 K): 1219.84 ± 0.15 kg/m3

Q: With `CCCCCCCC[N+](C)(CCCCCCCC)CCCCCCCC.[Cl-]` [N-methyl-N,N-dioctyl-1-octanaminium chloride] as the compound, how does the mass density (293.15 K) read?
A: 889.47 ± 2.7 kg/m3

Q: What about the mass density (298.14 K) of the same compound?
A: 886.45 ± 2.7 kg/m3

Q: What about the mass density (303.14 K) of the same compound?
A: 883.43 ± 2.7 kg/m3

Q: And the mass density (308.14 K)?
A: 880.41 ± 2.7 kg/m3

Q: What about the mass density (313.14 K) of the same compound?
A: 877.37 ± 2.7 kg/m3

Q: What about the mass density (318.14 K) of the same compound?
A: 874.35 ± 2.6 kg/m3

Q: And the mass density (323.14 K)?
A: 871.36 ± 2.6 kg/m3

Q: And the mass density (328.14 K)?
A: 868.37 ± 2.6 kg/m3

Q: What about the mass density (333.14 K) of the same compound?
A: 865.37 ± 2.6 kg/m3

Q: And the mass density (338.14 K)?
A: 862.37 ± 2.6 kg/m3

Q: And the mass density (343.14 K)?
A: 859.36 ± 2.6 kg/m3

Q: Which mass density (293.16 K) does the source give for `CCCCCCCC[N+](C)(CCCCCCCC)CCCCCCCC.O=[N+]([O-])[O-]` [N-methyl-N,N,N-trioctylammonium nitrate] here?
A: 915.29 ± 2.9 kg/m3

Q: What about the mass density (298.14 K) of the same compound?
A: 912.33 ± 2.9 kg/m3

Q: And the mass density (303.14 K)?
A: 909.37 ± 2.9 kg/m3

Q: And the mass density (308.14 K)?
A: 906.41 ± 2.8 kg/m3

Q: What about the mass density (313.14 K) of the same compound?
A: 903.43 ± 2.8 kg/m3

Q: What about the mass density (318.14 K) of the same compound?
A: 900.5 ± 2.8 kg/m3

Q: What about the mass density (323.14 K) of the same compound?
A: 897.58 ± 2.8 kg/m3

Q: What about the mass density (328.14 K) of the same compound?
A: 894.67 ± 2.8 kg/m3

Q: And the mass density (333.14 K)?
A: 891.76 ± 2.8 kg/m3

Q: What about the mass density (338.14 K) of the same compound?
A: 888.84 ± 2.7 kg/m3

Q: What about the mass density (343.14 K) of the same compound?
A: 885.93 ± 2.7 kg/m3

Source: the NIST ThermoML archive (doi:10.1016/j.jct.2012.05.020)
